According to patent publication US11337916B2, “Myrciaria dubia fruit extracts rich in organic acids, cosmetic compositions comprising same and cosmetic uses thereof” (ISP INVESTMENTS LLC, priority 2018, dated 2022):

Columns and labels:
reconstructed epidermis = assay: Morphology of reconstructed epidermis in tired condition (rotenone), haematoxylin-eosin staining; type: cell-based, human; details: rotenone added on day 12 of reconstruction, 3 h incubation
Description: The aim of this study is to create a model of reconstructed “tired” human skin. To do this, the skin is reconstructed using adult donor keratinocytes and a respiratory chain inhibitor (rotenone) to create a lack of energy.
The use of a respiratory chain inhibitor such as rotenone creates mitochondrial dysfunction, including ATP depletion. Therefore, lack of cellular energy was equated in our model to a state of cellular fatigue (Han G et al, The mitochondrial complex I inhibitor rotenone induces endoplasmic reticulum stress and activation of GSK-3β in cultured rat retinal cells, Invest Ophthalmol Vis Sci. 31; 55(9):5616-28, 2014). These cultures are treated during the reconstruction with 0.1% E1 Myrciaria extract (volume/volume), i.e. diluted 1/1000th or 1% (volume/volume), i.e. diluted 1/100th in the culture medium.
Protocol: On day 12 of epidermal reconstruction, rotenone is added to the culture medium. A control condition is maintained without adding rotenone but changing the culture medium anyway. After 3 h incubation with the inhibitor, the medium is changed to a new medium containing 0.1% E1 Myrciaria extract and the epidermis is incubated again for 48 h. The placebo condition contains PBS (phosphate buffer saline) in the culture medium. The morphology of the skin is then observed by a Haematoxylin-Eosin (HE) staining. […]

[1] = system: PFKFB3 (6-phosphofructo-2-kinase/fructose-2,6-biphosphatase 3); assay: PFKFB3 expression on reconstructed epidermis in tired condition (immunofluorescence); type: cell-based, human; details: rotenone alone
Description: The aim of this study is to determine the level of expression of PFKFB3 (6-phosphofructo-2-kinase/fructose-2,6-biphosphatase 3) in a model of “tired” reconstructed human skin.
PFKFB3 is involved in the glycolysis process. It is an inducible enzyme that is expressed by the active epithelial cells of the epidermis. It enables the activation of the enzyme PFK-1 (phosphofructokinase-1), which limits this glycolysis process.
To obtain “tired” skin, this is reconstructed using adult donor keratinocytes and a respiratory chain inhibitor (rotenone) to create a lack of energy (see example 6). These cultures are treated during reconstruction with 0.1% E1 Myrciaria extract (volume/volume), i.e. diluted 1/1000th in the culture medium.
Protocol: On day 12 of epidermal reconstruction, rotenone is added to the culture medium. A control condition is maintained without adding rotenone but changing the culture medium anyway. After 3 h incubation with the inhibitor, the medium is changed to a new medium containing 0.1% E1 Myrciaria extract and the epidermises are incubated again for 48 h. […]
For staining, the cuts are dewaxed by xylene and ethanol baths and then rinsed. […] The cuts are then examined under an Epi-fluorescence microscope (Zeiss Axiovert 200M microscope). A quantification of the fluorescence, using Volocity® image analysis software (PerkinElmer, Inc.), is performed from the obtained photographs.

creatine kinase = assay: Creatine kinase activity on "tired" dermal fibroblast cultures; type: cell-based; details: 0.1% E1 extract or vitamin C at 4 μg/mL, two days of treatment
Protocol: The aim of this study is to determine the level of creatine kinase activity in dermal fibroblast cultures. The function of this enzyme is to catalyse the conversion of creatine to phosphocreatine, thus providing a rapidly usable energy reserve. This activity measurement is performed on cultures of “tired” dermal fibroblasts treated with 0.1% E1 Myrciaria extract (volume/volume), i.e. diluted 1/1000th in the culture medium. Protocol: Dermal fibroblast cultures are “tired” by a few replications (cells used between passes 15 and 20) and are fed with a nutrient-poor medium (without glucose) for 3 days. These cultures are treated with 0.1% E1 Myrciaria extract, or with vitamin C at 4 μg/mL as a positive control, from the second day of stress and for the remaining two days of stress. Two days after the start of treatment, a measurement of creatine kinase activity is performed using a kit (Abcam—ref: ab155901). For this purpose, the fibroblasts are detached with the CK buffer contained in the kit, recovered and centrifuged at 4000 g for 5 min at 4° C. The activity is then measured for each sample according to the kit protocol. Kinetics are obtained by a colorimetric reading with the Synergy 2 spectrometer (Biotek) coupled to Gen5 software.

C=C(C)[C@H]1Cc2c(ccc3c2O[C@@H]2COc4cc(OC)c(OC)cc4[C@@H]2C3=O)O1 [rotenone]
morphology of reconstructed epidermis versus control (HE staining) (reconstructed epidermis): thinner epidermis than the control and a more damaged basal layer | PFKFB3 expression change compared to unstressed epidermises [1]: −20%

O=C1O[C@H]([C@@H](O)CO)C(O)=C1O [vitamin C]
creatine kinase activity increase compared to untreated "tired" cells (creatine kinase): +44%
